{"source": "paper PMC8329300", "about": "“X-ray crystallography reveals molecular recognition mechanism for sugar binding in a melibiose transporter MelB” (Communications Biology, 2021)", "biological_target": "T1, MelBSt D59C (Salmonella typhimurium, UniProt P30878, D59C)", "T1 construct": "Cys scanning mutagenesis for the full-length MelBSt; expressed in transfected cells; host or cells: E. coli DW2 (melA+, melB-, lacZ-Y-)", "T1 sequence (P30878 whole entry D59C)": "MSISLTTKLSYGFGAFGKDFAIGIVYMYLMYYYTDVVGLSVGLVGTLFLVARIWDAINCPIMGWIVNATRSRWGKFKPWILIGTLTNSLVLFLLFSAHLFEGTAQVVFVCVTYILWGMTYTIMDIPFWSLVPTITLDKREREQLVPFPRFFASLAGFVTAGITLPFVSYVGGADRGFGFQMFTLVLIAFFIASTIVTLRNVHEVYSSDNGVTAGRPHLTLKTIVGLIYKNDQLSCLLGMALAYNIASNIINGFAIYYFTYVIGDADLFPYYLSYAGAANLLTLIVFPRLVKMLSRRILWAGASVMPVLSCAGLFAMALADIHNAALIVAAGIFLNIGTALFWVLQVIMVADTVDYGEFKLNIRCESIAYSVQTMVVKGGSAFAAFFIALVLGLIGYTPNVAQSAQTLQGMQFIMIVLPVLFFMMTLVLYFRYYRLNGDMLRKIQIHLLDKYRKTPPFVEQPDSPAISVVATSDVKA", "assay": "[3H]Melibiose transport time course with DW2 intact cells expressing MelBSt D59C", "assay_type": "cell-based", "details": "0.4 mM [3H]melibiose", "procedure": "Fig. 1 Functional characterizations. a [^3H] Melibiose transport time course with intact cells. E. coli DW2 strain (melB^−, lacZ^−Y^−) expressed with the WT, D59C, or D59A MelBSt mutants were subjected to [^3H]melibiose active transport assay at 0.4 mM and 10 mCi/mmol in the presence of 20 mM or 100 mM NaCl or LiCl by a fast filtration method. Inset, melibiose fermentation assay. Transformants with DW2 strain were plated on MacConkey agar plates containing 30 mM melibiose as the sole carbohydrate source and pH sensor neutral red, and incubated at 37 °C for 16–18 h before imaging. Number of tests = 3, from different batch of cells or duplicate measurements from same batch of sample. b Ligand binding by Trp→dansyl galactoside (D^2G) FRET assay. Purified proteins at 1 μM concentration in 20 mM Tris-HCl, pH 7.5, 100 mM CholCl, 10% glycerol, and 0.03% UDM were subjected to steady-state fluorescence measurements as described in Methods. On the time-trace, 1.8 μL of 1 mM D^2G at 10 μM was added into 180 μL of protein solutions at 1-min point, followed by supplying 10 μL of 5 mM DDMB or 5 mM α-NPG to displace the bound D^2G. For testing Na^+ or Li^+ binding, they are added into the solution before displacement with the second sugar. The structure of DDMB or α-NPG is shown in a chair form, and the carbon positions are labeled. Glycosidic bonds are indicated by arrows. Both are α-galactosides containing a substituent at the anomeric carbon-1. The data were from duplicate measurements.\nThe overexpression of MelBSt was carried out in the E. coli DW2 strain (melA^+, melB^−, and lacZ^−Y^−) from a constitutive expression plasmid pK95ΔAH/MelBSt/CHis10[9],[28],[33]. The D59C or D59A mutant with Cys or Ala at the position 59, respectively, was constructed previously[9] or in this study by QuikChange Site-Directed Mutagenesis kit and confirmed by DNA sequencing analysis. E. coli DW2 cells containing a given plasmid were grown in Luria-Bertani (LB) broth (5 g yeast extract and 10 g tryptone per liter with 171 mM NaCl) with 100 mg/L of ampicillin in a 37 °C shaker. The overnight cultures were diluted by 5% with LB broth supplemented with 0.5% glycerol and 100 mg/L of ampicillin, and constitutive overexpression was obtained by shaking at 30 °C for another 5 h.\nE. coli DW2 cells expressing MelBSt were washed with 100 mM KPi, pH 7.5, to remove Na^+ contamination as described previously. The cell pellets were resuspended with the assay buffer (100 mM KPi, pH 7.5, 10 mM MgSO4) and adjusted to A420 of 10 (∼0.7 mg protein/ml). Using a fast filtration, transport time course at 0.4 mM melibiose (at specific activity of 10 mCi/mmol) was carried out in the absence or presence of NaCl or LiCl at 20 mM or 100 mM, respectively, and intracellular melibiose was determined as described previously."}
{"smiles": "OC[C@H]1O[C@H](OCC2O[C@@H](O)[C@H](O)[C@@H](O)[C@@H]2O)[C@H](O)[C@@H](O)[C@H]1O", "note": "(stereo partly shown) [Melibiose]", "values": [{"measurement": "Melibiose transport", "setting": "H+, Time 0.08", "result": 2.90}, {"measurement": "Melibiose transport", "setting": "H+, Time 0.17", "result": 4.95}, {"measurement": "Melibiose transport", "setting": "H+, Time 0.50", "result": 7.21}, {"measurement": "Melibiose transport", "setting": "H+, Time 1.00", "result": 7.87}, {"measurement": "Melibiose transport", "setting": "H+, Time 2.00", "result": 9.68}, {"measurement": "Melibiose transport", "setting": "H+, Time 5.00", "result": 7.94}, {"measurement": "Melibiose transport", "setting": "H+, Time 10.00", "result": 6.75}, {"measurement": "Melibiose transport", "setting": "H+, Time 30.00", "result": 4.22}, {"measurement": "Melibiose transport", "setting": "Li+, 20 mM, Time 0.08", "result": 4.23}, {"measurement": "Melibiose transport", "setting": "Li+, 20 mM, Time 0.17", "result": 7.46}, {"measurement": "Melibiose transport", "setting": "Li+, 20 mM, Time 0.50", "result": 9.40}, {"measurement": "Melibiose transport", "setting": "Li+, 20 mM, Time 1.00", "result": 8.14}, {"measurement": "Melibiose transport", "setting": "Li+, 20 mM, Time 2.00", "result": 8.43}, {"measurement": "Melibiose transport", "setting": "Li+, 20 mM, Time 5.00", "result": 9.92}, {"measurement": "Melibiose transport", "setting": "Li+, 20 mM, Time 10.00", "result": 9.02}, {"measurement": "Melibiose transport", "setting": "Li+, 20 mM, Time 30.00", "result": 7.58}, {"measurement": "Melibiose transport", "setting": "Li+, 100 mM, Time 0.08", "result": 5.34}, {"measurement": "Melibiose transport", "setting": "Li+, 100 mM, Time 0.17", "result": 7.70}, {"measurement": "Melibiose transport", "setting": "Li+, 100 mM, Time 0.50", "result": 7.46}, {"measurement": "Melibiose transport", "setting": "Li+, 100 mM, Time 1.00", "result": 5.16}, {"measurement": "Melibiose transport", "setting": "Li+, 100 mM, Time 2.00", "result": 7.88}, {"measurement": "Melibiose transport", "setting": "Li+, 100 mM, Time 5.00", "result": 5.54}, {"measurement": "Melibiose transport", "setting": "Li+, 100 mM, Time 10.00", "result": 7.56}, {"measurement": "Melibiose transport", "setting": "Li+, 100 mM, Time 30.00", "result": 11.83}, {"measurement": "Melibiose transport", "setting": "Na+, 20 mM, Time 0.08", "result": 4.91}, {"measurement": "Melibiose transport", "setting": "Na+, 20 mM, Time 0.17", "result": 5.04}, {"measurement": "Melibiose transport", "setting": "Na+, 20 mM, Time 0.50", "result": 6.31}, {"measurement": "Melibiose transport", "setting": "Na+, 20 mM, Time 1.00", "result": 7.41}, {"measurement": "Melibiose transport", "setting": "Na+, 20 mM, Time 2.00", "result": 16.16}, {"measurement": "Melibiose transport", "setting": "Na+, 20 mM, Time 5.00", "result": 8.09}, {"measurement": "Melibiose transport", "setting": "Na+, 20 mM, Time 10.00", "result": 6.24}, {"measurement": "Melibiose transport", "setting": "Na+, 20 mM, Time 30.00", "result": 9.30}, {"measurement": "Melibiose transport", "setting": "Na+, 100 mM, Time 0.08", "result": 0.60}, {"measurement": "Melibiose transport", "setting": "Na+, 100 mM, Time 0.17", "result": 4.32}, {"measurement": "Melibiose transport", "setting": "Na+, 100 mM, Time 0.50", "result": 10.86}, {"measurement": "Melibiose transport", "setting": "Na+, 100 mM, Time 1.00", "result": 12.92}, {"measurement": "Melibiose transport", "setting": "Na+, 100 mM, Time 2.00", "result": 6.61}, {"measurement": "Melibiose transport", "setting": "Na+, 100 mM, Time 5.00", "result": 1.42}, {"measurement": "Melibiose transport", "setting": "Na+, 100 mM, Time 10.00", "result": 5.04}, {"measurement": "Melibiose transport", "setting": "Na+, 100 mM, Time 30.00", "result": 9.00}]}
